# Results published in ChEMBL document CHEMBL1201862, “PubChem BioAssay data set” (2004).
#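 Each compound was tested at five concentrations against cells in 96-well plates for 48 hours. Here, GI50 denotes the concentration required for 50% inhibition of growth.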 Calls of active or inactive are those of the source. No stated cut-off is given here; in the data, active = GI50 up to about 1.1 µM and inactive = higher.
# Key:
# Assay in all cases: NCI-60 cell line screen, 48 h
# HOP-62 = system: HOP-62
# NCI-H226 = system: NCI-H226
# CCRF-CEM = system: CCRF-CEM
# NCI/ADR-RES = system: NCI/ADR-RES
# RXF 393 = system: RXF 393
# DU-145 = system: DU-145
# K562 = system: K562
# RPMI-8226 = system: RPMI-8226
# SK-OV-3 = system: SK-OV-3
# Hs-578T = system: Hs-578T
# SR = system: SR
# NCI-H460 = system: NCI-H460
# NCI-H522 = system: NCI-H522
# SNB-19 = system: SNB-19
# UACC-62 = system: UACC-62
# SN12C = system: SN12C
# U-251 = system: U-251
# HOP-92 = system: HOP-92
# IGROV-1 = system: IGROV-1
# HL-60 = system: HL-60
# LOX IMVI = system: LOX IMVI
# HT-29 = system: HT-29
# TK-10 = system: TK-10
# BT-549 = system: BT-549
# SNB-75 = system: SNB-75
# NCI-H23 = system: NCI-H23
# SK-MEL-5 = system: SK-MEL-5
# 786-0 = system: 786-0
# MDA-MB-231 = system: MDA-MB-231
# SK-MEL-28 = system: SK-MEL-28
# HCT-15 = system: HCT-15
# M14 = system: M14
# Malme-3M = system: Malme-3M
# OVCAR-5 = system: OVCAR-5
# PC-3 = system: PC-3
# EKVX = system: EKVX
# MOLT-4 = system: MOLT-4
# MDA-N = system: MDA-N
# OVCAR-3 = system: OVCAR-3
# A549 = system: A549
# UACC-257 = system: UACC-257
# SF-539 = system: SF-539
# ACHN = system: ACHN
# SF-295 = system: SF-295
# A498 = system: A498
# HCT-116 = system: HCT-116
# MCF7 = system: MCF7
# SF-268 = system: SF-268
# UO-31 = system: UO-31
# SK-MEL-2 = system: SK-MEL-2
# COLO 205 = system: COLO 205
# T47D = system: T47D
# OVCAR-8 = system: OVCAR-8
# SW-620 = system: SW-620
# MDA-MB-435 = system: MDA-MB-435
# CAKI-1 = system: CAKI-1
# HCC 2998 = system: HCC 2998
# OVCAR-4 = system: OVCAR-4
# KM12 = system: KM12
structure (smiles),measurement,setting,value
Oc1ccc(CCNCc2cc3c(cc2Br)OCO3)cc1,GI50,HOP-62,79.3 µM (inactive)
same,GI50,NCI-H226,32.5 µM (inactive)
same,GI50,CCRF-CEM,73.8 µM (inactive)
same,GI50,NCI/ADR-RES,47.5 µM (inactive)
same,GI50,RXF 393,69.5 µM (inactive)
same,GI50,DU-145,> 100 µM (inactive)
same,GI50,K562,34.8 µM (inactive)
same,GI50,RPMI-8226,27.9 µM (inactive)
same,GI50,SK-OV-3,51.8 µM (inactive)
same,GI50,Hs-578T,> 100 µM (inactive)
same,GI50,SR,32.4 µM (inactive)
same,GI50,NCI-H460,57.8 µM (inactive)
same,GI50,NCI-H522,39.4 µM (inactive)
same,GI50,SNB-19,> 100 µM (inactive)
same,GI50,UACC-62,52.7 µM (inactive)
same,GI50,SN12C,66.8 µM (inactive)
same,GI50,U-251,77.8 µM (inactive)
same,GI50,HOP-92,> 100 µM (inactive)
same,GI50,IGROV-1,> 100 µM (inactive)
same,GI50,HL-60,28.1 µM (inactive)
same,GI50,LOX IMVI,88.9 µM (inactive)
same,GI50,HT-29,52.8 µM (inactive)
same,GI50,TK-10,75.9 µM (inactive)
same,GI50,BT-549,92.5 µM (inactive)
same,GI50,SNB-75,18.4 µM (inactive)
same,GI50,NCI-H23,> 100 µM (inactive)
same,GI50,SK-MEL-5,27.1 µM (inactive)
same,GI50,786-0,71 µM (inactive)
same,GI50,MDA-MB-231,55.3 µM (inactive)
same,GI50,SK-MEL-28,37.2 µM (inactive)
same,GI50,HCT-15,> 100 µM
same,GI50,M14,38.1 µM (inactive)
same,GI50,Malme-3M,62.8 µM (inactive)
same,GI50,OVCAR-5,> 100 µM (inactive)
same,GI50,PC-3,46.9 µM (inactive)
same,GI50,EKVX,> 100 µM (inactive)
same,GI50,MOLT-4,32.6 µM (inactive)
same,GI50,MDA-N,68.2 µM (inactive)
same,GI50,OVCAR-3,30.1 µM (inactive)
same,GI50,A549,> 100 µM (inactive)
same,GI50,UACC-257,50.2 µM (inactive)
same,GI50,SF-539,4.17 µM (inactive)
same,GI50,ACHN,95.5 µM (inactive)
same,GI50,SF-295,65.2 µM (inactive)
same,GI50,A498,50 µM (inactive)
same,GI50,HCT-116,61.7 µM (inactive)
same,GI50,MCF7,70.1 µM (inactive)
same,GI50,SF-268,> 100 µM (inactive)
same,GI50,UO-31,55.7 µM (inactive)
same,GI50,SK-MEL-2,21.7 µM (inactive)
same,GI50,COLO 205,18.8 µM (inactive)
same,GI50,T47D,41.4 µM (inactive)
same,GI50,OVCAR-8,> 100 µM (inactive)
same,GI50,SW-620,> 100 µM (inactive)
O=[N+]([O-])c1ccc(-c2nc3cc([N+](=O)[O-])ccc3[nH]2)cc1,GI50,HOP-62,31.9 µM (inactive)
same,GI50,NCI-H226,39.6 µM (inactive)
same,GI50,NCI/ADR-RES,17.6 µM (inactive)
same,GI50,RXF 393,63.7 µM (inactive)
same,GI50,DU-145,27.9 µM (inactive)
same,GI50,RPMI-8226,13.7 µM (inactive)
same,GI50,MDA-MB-435,29.4 µM (inactive)
same,GI50,SK-OV-3,34.1 µM (inactive)
same,GI50,CAKI-1,32.7 µM (inactive)
same,GI50,Hs-578T,40.5 µM (inactive)
same,GI50,SR,29 µM (inactive)
same,GI50,NCI-H460,22 µM (inactive)
same,GI50,NCI-H522,11.4 µM (inactive)
same,GI50,HCC 2998,50.2 µM (inactive)
same,GI50,SNB-19,43.1 µM (inactive)
same,GI50,UACC-62,37 µM (inactive)
same,GI50,SN12C,23.9 µM (inactive)
same,GI50,U-251,25.4 µM (inactive)
same,GI50,HOP-92,19.6 µM (inactive)
same,GI50,IGROV-1,30.5 µM (inactive)
same,GI50,LOX IMVI,26.5 µM (inactive)
same,GI50,HT-29,28.4 µM (inactive)
same,GI50,TK-10,52.2 µM (inactive)
same,GI50,BT-549,31.2 µM (inactive)
same,GI50,SNB-75,39.4 µM (inactive)
same,GI50,NCI-H23,21.4 µM (inactive)
same,GI50,SK-MEL-5,16.8 µM (inactive)
same,GI50,786-0,32.1 µM (inactive)
same,GI50,SK-MEL-28,40.6 µM (inactive)
same,GI50,HCT-15,34.9 µM
same,GI50,M14,21.9 µM (inactive)
same,GI50,Malme-3M,31.3 µM (inactive)
same,GI50,PC-3,16.4 µM (inactive)
same,GI50,EKVX,39.3 µM (inactive)
same,GI50,MOLT-4,29.9 µM (inactive)
same,GI50,MDA-N,33.2 µM (inactive)
same,GI50,OVCAR-3,42.1 µM (inactive)
same,GI50,OVCAR-4,47.2 µM (inactive)
same,GI50,A549,15.1 µM (inactive)
same,GI50,UACC-257,31 µM (inactive)
same,GI50,SF-539,23.5 µM (inactive)
same,GI50,ACHN,31 µM (inactive)
same,GI50,SF-295,20 µM (inactive)
same,GI50,HCT-116,19 µM (inactive)
same,GI50,KM12,24.8 µM (inactive)
same,GI50,MCF7,31 µM (inactive)
same,GI50,SF-268,44.9 µM (inactive)
same,GI50,UO-31,7.66 µM (inactive)
same,GI50,SK-MEL-2,23.6 µM (inactive)
same,GI50,COLO 205,14.3 µM (inactive)
same,GI50,T47D,15.5 µM (inactive)
same,GI50,OVCAR-8,22.4 µM (inactive)
same,GI50,SW-620,41.3 µM (inactive)
COC(=O)[C@@H]1O[C@]12[C@@H](CO[Si](C)(C)C(C)(C)C)O[C@@H](n1cc(C)c(=O)[nH]c1=O)[C@@H]2O[Si](C)(C)C(C)(C)C,GI50,HOP-62,26.2 µM (inactive)
same,GI50,NCI-H226,21 µM (inactive)
same,GI50,CCRF-CEM,2.39 µM (inactive)
same,GI50,NCI/ADR-RES,13.6 µM (inactive)
same,GI50,RXF 393,7.35 µM (inactive)
same,GI50,DU-145,18.2 µM (inactive)
same,GI50,K562,7.96 µM (inactive)
same,GI50,MDA-MB-435,19.5 µM (inactive)
same,GI50,SK-OV-3,32.6 µM (inactive)
same,GI50,CAKI-1,23.4 µM (inactive)
same,GI50,Hs-578T,19.1 µM (inactive)
same,GI50,NCI-H460,11.6 µM (inactive)
same,GI50,NCI-H522,11.9 µM (inactive)
same,GI50,SNB-19,10.3 µM (inactive)
same,GI50,UACC-62,17.9 µM (inactive)
same,GI50,SN12C,13.8 µM (inactive)
same,GI50,U-251,12.3 µM (inactive)
same,GI50,IGROV-1,5.64 µM (inactive)
same,GI50,HL-60,3.12 µM (inactive)
same,GI50,LOX IMVI,3.38 µM (inactive)
same,GI50,HT-29,6.11 µM (inactive)
same,GI50,TK-10,45 µM (inactive)
same,GI50,BT-549,15.9 µM (inactive)
same,GI50,SNB-75,23.1 µM (inactive)
same,GI50,NCI-H23,15.8 µM (inactive)
same,GI50,SK-MEL-5,19.7 µM (inactive)
same,GI50,MDA-MB-231,19.9 µM (inactive)
same,GI50,SK-MEL-28,19.8 µM (inactive)
same,GI50,HCT-15,4.35 µM
same,GI50,M14,19.5 µM (inactive)
same,GI50,Malme-3M,21.6 µM (inactive)
same,GI50,OVCAR-5,20.4 µM (inactive)
same,GI50,PC-3,20.4 µM (inactive)
same,GI50,EKVX,23.5 µM (inactive)
same,GI50,MOLT-4,2.84 µM (inactive)
same,GI50,MDA-N,12.9 µM (inactive)
same,GI50,OVCAR-3,14.6 µM (inactive)
same,GI50,OVCAR-4,32.5 µM (inactive)
same,GI50,A549,25.5 µM (inactive)
same,GI50,UACC-257,22.4 µM (inactive)
same,GI50,SF-539,21.3 µM (inactive)
same,GI50,ACHN,16.6 µM (inactive)
same,GI50,SF-295,21.2 µM (inactive)
same,GI50,HCT-116,15.2 µM (inactive)
same,GI50,KM12,23 µM (inactive)
same,GI50,SF-268,15.4 µM (inactive)
same,GI50,SK-MEL-2,15 µM (inactive)
same,GI50,COLO 205,28.4 µM (inactive)
same,GI50,T47D,6.31 µM (inactive)
same,GI50,OVCAR-8,15.3 µM (inactive)
same,GI50,SW-620,11.5 µM (inactive)
